Data taken from ChEMBL document CHEMBL1201862, “PubChem BioAssay data set” (2004).
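Cells were grown in 96-well plates and exposed to each compound for 48 hours at five concentrations; endpoints were interpolated linearly between bracketing concentrations, or set to the highest concentration if not reached. GI50 is the concentration that inhibits growth by half.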 The source made the active and inactive calls. No stated cut-off is given here; in the data, active = GI50 up to about 1.1 µM and inactive = higher.

Experiments:
Assay in all cases: NCI-60 cell line screen, 48 h
RXF 393 = system: RXF 393
M14 = system: M14
A498 = system: A498
CAKI-1 = system: CAKI-1
MOLT-4 = system: MOLT-4
UACC-257 = system: UACC-257
MDA-N = system: MDA-N
LOX IMVI = system: LOX IMVI
MDA-MB-435 = system: MDA-MB-435
SK-OV-3 = system: SK-OV-3
A549 = system: A549
SR = system: SR
OVCAR-5 = system: OVCAR-5
NCI-H226 = system: NCI-H226
NCI/ADR-RES = system: NCI/ADR-RES
HOP-92 = system: HOP-92
SW-620 = system: SW-620
SNB-75 = system: SNB-75
MDA-MB-231 = system: MDA-MB-231
HCC 2998 = system: HCC 2998
NCI-H460 = system: NCI-H460
SNB-19 = system: SNB-19
NCI-H23 = system: NCI-H23
SK-MEL-5 = system: SK-MEL-5
KM12 = system: KM12
OVCAR-4 = system: OVCAR-4
MCF7 = system: MCF7
HL-60 = system: HL-60
SK-MEL-2 = system: SK-MEL-2
IGROV-1 = system: IGROV-1
RPMI-8226 = system: RPMI-8226
COLO 205 = system: COLO 205
UO-31 = system: UO-31
DU-145 = system: DU-145
Malme-3M = system: Malme-3M
BT-549 = system: BT-549
PC-3 = system: PC-3
SF-268 = system: SF-268
T47D = system: T47D
HOP-62 = system: HOP-62
U-251 = system: U-251
SK-MEL-28 = system: SK-MEL-28
OVCAR-3 = system: OVCAR-3
ACHN = system: ACHN
TK-10 = system: TK-10
SF-539 = system: SF-539
HCT-15 = system: HCT-15
OVCAR-8 = system: OVCAR-8
SN12C = system: SN12C
HT-29 = system: HT-29
HCT-116 = system: HCT-116
786-0 = system: 786-0
NCI-H522 = system: NCI-H522
Hs-578T = system: Hs-578T
K562 = system: K562
EKVX = system: EKVX
SF-295 = system: SF-295
UACC-62 = system: UACC-62
CCRF-CEM = system: CCRF-CEM

Measured: GI50

CN(C)c1ccc(/C=C2\C[C@H]3[C@@H]4CC=C5C[C@@H](N6CCCC6)CC[C@]5(C)[C@H]4CC[C@]3(C)[C@H]2O)cc1
1570 nM: HCT-15
active: RXF 393 966 nM | M14 773 nM | A498 1010 nM | UACC-257 957 nM | MDA-N 1010 nM | LOX IMVI 787 nM | SR 773 nM | NCI-H226 813 nM | SNB-75 959 nM | MDA-MB-231 973 nM | HCC 2998 910 nM | SK-MEL-5 923 nM | OVCAR-4 796 nM | SK-MEL-2 1070 nM | IGROV-1 989 nM | RPMI-8226 973 nM | UO-31 838 nM | Malme-3M 938 nM | SF-268 989 nM | T47D 998 nM | U-251 925 nM | SK-MEL-28 977 nM | ACHN 873 nM | OVCAR-8 769 nM | HT-29 1100 nM | HCT-116 897 nM | 786-0 659 nM | NCI-H522 1110 nM | Hs-578T 883 nM | UACC-62 871 nM
inactive: CAKI-1 1160 nM | MOLT-4 1820 nM | MDA-MB-435 1350 nM | SK-OV-3 4390 nM | A549 1360 nM | OVCAR-5 3990 nM | NCI/ADR-RES 1620 nM | HOP-92 2470 nM | SW-620 1300 nM | NCI-H460 1480 nM | SNB-19 1500 nM | NCI-H23 3660 nM | KM12 2240 nM | MCF7 2960 nM | HL-60 1150 nM | COLO 205 1520 nM | DU-145 3050 nM | BT-549 3180 nM | PC-3 2180 nM | HOP-62 1710 nM | OVCAR-3 1150 nM | TK-10 1240 nM | SF-539 3780 nM | SN12C 1220 nM | K562 1210 nM | EKVX 1830 nM | SF-295 1130 nM

O=C1Nc2ccccc2/C1=C\c1c(Cl)[nH]c2ccccc12
active: RXF 393 869 nM | M14 873 nM | CAKI-1 537 nM | MOLT-4 522 nM | CCRF-CEM 358 nM | MDA-N 240 nM | LOX IMVI 1070 nM | MDA-MB-435 208 nM | SK-OV-3 320 nM | SR 292 nM | NCI/ADR-RES 355 nM | HOP-92 480 nM | SW-620 516 nM | HCC 2998 416 nM | NCI-H460 597 nM | SNB-19 764 nM | SK-MEL-5 414 nM | KM12 397 nM | MCF7 366 nM | HL-60 251 nM | SK-MEL-2 1110 nM | IGROV-1 139 nM | RPMI-8226 589 nM | COLO 205 288 nM | Malme-3M 631 nM | BT-549 832 nM | PC-3 649 nM | SF-268 1120 nM | HOP-62 787 nM | U-251 518 nM | SK-MEL-28 299 nM | OVCAR-3 592 nM | SF-539 374 nM | HT-29 222 nM | HCT-116 745 nM | 786-0 935 nM | NCI-H522 736 nM | Hs-578T 409 nM | K562 364 nM | EKVX 1060 nM | SF-295 287 nM | UACC-62 1050 nM
inactive: A498 1150 nM | UACC-257 1590 nM | A549 1230 nM | OVCAR-5 1440 nM | NCI-H226 3650 nM | MDA-MB-231 1450 nM | NCI-H23 2450 nM | UO-31 1660 nM | DU-145 3350 nM | T47D 24000 nM | ACHN 1300 nM | TK-10 1350 nM | OVCAR-8 2420 nM | SN12C 2850 nM
608 nM: HCT-15
